Patent US10279190B2, “Treating disease with resonance generating electromagnetic fields” (Anapole Technologies Inc., priority 2016, dated 2019)
Marks after values point to notes of the source that are not given here.

Experiments:
[1] = system: U-87 MG cells; test: PS externalization (Annexin V staining) in U-87 MG cells; assay type: cell-based; settings: 25 nM, 72 hours, vs vehicle control
Procedure: (§1) U-87 MG cells may be plated at a density of 8×10^5 cells/150-mm dish. 48 hours after plating, cells may be treated with vehicle control or 25 nM docetaxel for 72 hours. At the end of treatment, cells may be harvested by trypsinization, and an aliquot of live/unfixed cells may be used to determine cell number, PS externalization, and caspase-3/7 activity using a cell analyzer. Remaining cells may be fixed for cell cycle analysis using a cell analyzer and DNA fragmentation analysis by BD LSRII Flow Cytometry as described below.
(§2) U-87 MG cells harvested by trypsinization may be pooled with media plus washes and pelleted by centrifugation. The cells may be re-suspended in complete media diluted 1:10 with PBS (1% FBS/PBS). For determination of count and viability, an aliquot of the cell suspension may be diluted 1:10 with a count & viability reagent, which differentially stains viable and non-viable cells based on their permeability to two DNA binding dyes, and incubated for 5 minutes in the dark at room temperature according to manufacturer's protocol. For detection of phosphatidylserine (PS) externalization, an aliquot of cell suspension appropriately diluted in 1% FBS/PBS may be mixed 1:1 with an Annexin V & dead cell reagent and incubated for 20 minutes in the dark at room temperature according to manufacturer's protocol. […]

[2] = system: U-87 MG cells; test: DNA fragmentation of U-87 MG cells (APO-BRDU, flow cytometry); assay type: cell-based; settings: 25 nM, 72 hour treatment; percentage of the cell population, mean±SD, n=2
Procedure: as §1
For analysis of DNA fragmentation, U-87 MG cells may be harvested by trypsinization, collected by centrifugation, fixed in 2% formaldehyde in PBS, and permeabilized in 70% EtOH at −20° C. DNA strand breaks in cells undergoing apoptosis may be indirectly labeled with bromodeoxyuridine by terminal transferase and detected by FITC-conjugated monoclonal antibody to bromodeoxyuridine using the APO-BRDU kit according to manufacturer's protocol. Cells may be counterstained with 5 μg/ml propidium iodide containing RNase A for detection of total DNA, and two-color analysis of DNA strand breaks and cell cycle may be achieved by flow cytometry. Flow cytometric analysis may be performed on a BD LSR II Flow Cytometer equipped with three excitation lasers (405-nm, 488-nm and 633-nm). For DNA fragmentation analysis, FITC and PI signals may be collected by 488-nm octagon detection array with no color compensation. 10,000 events gated on single cell populations may be collected and post-acquisition analysis may be performed using software FlowJo 7.6.5.
Table 6 is an analysis of DNA fragmentation of U-87 MG cells after 72 hour treatment with 25 nM docetaxel. DNA fragmentation may be determined by flow cytometry as described above.

[3] = system: U-87 MG cells; test: Caspase-3/7 activation in U-87 MG cells; assay type: cell-based; settings: 25 nM, 72 hours, vs vehicle control
Procedure: as §1
U-87 MG cells harvested by trypsinization may be pooled with media plus washes and pelleted by centrifugation. The cells may be re-suspended in complete media diluted 1:10 with PBS (1% FBS/PBS). […]
Cleavage by active caspase-3/7 releases the dye within the cell and results in translocation to the nucleus, binding to DNA and high fluorescence. […] A cell cycle reagent may be a proprietary formulation containing the DNA intercalating dye propidium iodide and RNAse A. The multiparametric fluorescent detection of individual cells may be performed by a cell analyzer, a microcapillary flow cytometer equipped with a 532-nm laser, a forward scatter and two fluorescence (YLW 576/26, RED 680/30) detectors. […]

[4] = system: U-87 MG cells; settings: 25 nM, 72 hours; "has been shown"; cited from earlier work
[5] = system: U-87 MG cells; test: Cell cycle analysis of U-87 MG cells (cell cycle reagent, propidium iodide); assay type: cell-based; settings: 25 nM, 72 hour treatment; proportion of cells in cell cycle phase, mean±SD, n=3
Procedure: as §1
Cleavage by active caspase-3/7 releases the dye within the cell and results in translocation to the nucleus, binding to DNA and high fluorescence. For cell cycle analysis, an ethanol-fixed cell suspension may be obtained by taking an aliquot of cell suspension, pelleting by centrifugation, resuspending in PBS, and fixing in 70% ethanol at −20° C. Fixed cells may be washed in PBS/0.2% BSA, pelleted by centrifugation, resuspended in a cell cycle reagent, and incubated for 30 minutes in the dark at room temperature according to manufacturer's protocol. A cell cycle reagent may be a proprietary formulation containing the DNA intercalating dye propidium iodide and RNAse A. The multiparametric fluorescent detection of individual cells may be performed by a cell analyzer, a microcapillary flow cytometer equipped with a 532-nm laser, a forward scatter and two fluorescence (YLW 576/26, RED 680/30) detectors. Data acquisition and analysis of count & viability, Annexin V & dead cell, and caspase-3/7 assays may be done by analysis software. Post-acquisition analysis of cell cycle data may be performed using software (e.g., FlowJo 7.6.5).
Table 5 is a cell cycle analysis of U-87 MG cells after 72 hour treatment with 25 nM docetaxel. At the end of 72 hour treatment, cells may be harvested and cell cycle may be determined by incubating the cells in a cell cycle reagent and following the manufacturer's protocol. Data represent the mean±SD of three independent biological replicates (*p<0.1).

[6] = system: U-87 MG cells; test: U-87 MG cell number (count & viability) after docetaxel treatment; assay type: cell-based; settings: 25 nM docetaxel, 72 hours, vs vehicle control, not significant
Procedure: as §1, §2

SMILES: CC(=O)O[C@@]12CO[C@@H]1C[C@H](O)[C@@]1(C)C(=O)[C@H](O)C3=C(C)[C@@H](OC(=O)[C@H](O)[C@@H](NC(=O)OC(C)(C)C)c4ccccc4)C[C@@](O)([C@@H](OC(=O)c4ccccc4)[C@H]21)C3(C)C [Docetaxel, docetaxel]
- Annexin V positive cells [1]: significant increase
- DNA Frag (+) Apoptotic bodies (upper left quadrant) [2]: 0.10 ± 0.0%
- DNA Frag (+) Cells (upper right quadrant) [2]: 2.11 ± 1.69%
- DNA Frag (−) Apoptotic bodies (lower left quadrant) [2]: 3.57 ± 1.65%
- DNA Frag (−) Cells (lower right quadrant) [2]: 94.2 ± 0.07%
- caspase-3/7 activation [3]: significant increase
- arresting cell growth in U-87 MG cells, compared with temozolomide [4]: as effective as temozolomide
- G1 [5]: 39.7 ± 4.8*
- G2/M [5]: 22.1 ± 4.4
- S [5]: 26.7 ± 1.7*
- Sub-G0 [5]: 9.9 ± 3.9*
- decrease in U-87 MG cell number [6]: 20%
- decrease in U-87 MG cell number ([6]; listed as docetaxel): approximately 20%
